The values that follow come from patent publication US9743685B2, “Mixtures having improved cooling effect” (SYMRISE AG, priority 2012, dated 2017).

Structures are written as SMILES.

The test is described as follows: Sensory comparison of flavored formulation examples with the flavor not according to the invention. The class given is in vivo.

For `C/C=C(/C=O)c1ccccc1` [2-phenyl-but-2-enal, 2-Phenyl-but-2-enal], the “Sensory effect compared to the flavor not according to the invention” value (standard chewing gum, 2% peppermint type flavor (Example 2.11)) is “intensified feeling of freshness together with an increased menthol taste and perception of coolness”; the “Sensory effect compared to the flavor not according to the invention” value (sugar-free chewing gum, 1% Cinnamon type flavor Cool (Example 2.10), especially in the initial phase of consumption) is “intensified feeling of freshness together with an increased menthol taste and perception of coolness”; the “Sensory effect compared to the flavor not according to the invention” value (toothpaste (Silica opaque), 1% peppermint type flavor Cool (Example 2.14)) was “fresher mouthfeel together with an increased menthol taste and perception of coolness”; the “Sensory effect compared to the flavor not according to the invention” value (toothpaste (phosphate base), 1% spearmint type flavor (Example 2.12), especially at the start of brushing) was “definite feeling of freshness together with an increased menthol taste and perception of coolness”; the “Sensory effect compared to the flavor not according to the invention” value (toothpaste (transparent gel), 1% cinnamon type flavor (Example 2.13)) is “clearer freshness profile together with an increased menthol taste and perception of coolness”.
